Data from patent US11332438B2, “Creatine prodrugs, compositions and methods of use thereof” (Ultragenyx Pharmaceutical Inc., priority 2017, dated 2022).

What was measured:
[1] = Chemical stability in simulated intestinal fluid (SIF) without pancreatin; type: physicochemical; details: Table 2A, 50 μM prodrug
Procedure: Chemical stability of creatine prodrugs in phosphate buffered saline (PBS), simulated intestinal fluid (SIF) without pancreatin, simulated gastric fluid (SGF) without pepsin were determined by LC-UV, LC-CAD, LC-UV-CAD or LC-MS/MS as appropriate. Creatine prodrugs of the present disclosure (50 μM) were incubated at 37° C. according to described protocols and prodrug levels were compared between t=0, t=15, t=60, and t=120 mins by peak area ratio to determine the percentage remained at t=120 mins (2 h).
Protocol for PBS, SIF and SGF stability for screening:
Prodrugs (50 μM) were incubated in PBS, FaSSIF (Biorelevant) or FaSSGF (Biorelevant) at 37° C.

creatine transporter = molecular target: T1, creatine transporter (Rattus norvegicus, UniProt P28570); experiment: Co-administration with creatine transporter blocker beta-guanidinopropionic acid (GPA), d3-Cr in WT rat brain; type: in vivo
T1 construct: from tissue; host or cells: WT rat, in vivo (brain / blood-brain barrier)
T1 sequence (P28570 1-635): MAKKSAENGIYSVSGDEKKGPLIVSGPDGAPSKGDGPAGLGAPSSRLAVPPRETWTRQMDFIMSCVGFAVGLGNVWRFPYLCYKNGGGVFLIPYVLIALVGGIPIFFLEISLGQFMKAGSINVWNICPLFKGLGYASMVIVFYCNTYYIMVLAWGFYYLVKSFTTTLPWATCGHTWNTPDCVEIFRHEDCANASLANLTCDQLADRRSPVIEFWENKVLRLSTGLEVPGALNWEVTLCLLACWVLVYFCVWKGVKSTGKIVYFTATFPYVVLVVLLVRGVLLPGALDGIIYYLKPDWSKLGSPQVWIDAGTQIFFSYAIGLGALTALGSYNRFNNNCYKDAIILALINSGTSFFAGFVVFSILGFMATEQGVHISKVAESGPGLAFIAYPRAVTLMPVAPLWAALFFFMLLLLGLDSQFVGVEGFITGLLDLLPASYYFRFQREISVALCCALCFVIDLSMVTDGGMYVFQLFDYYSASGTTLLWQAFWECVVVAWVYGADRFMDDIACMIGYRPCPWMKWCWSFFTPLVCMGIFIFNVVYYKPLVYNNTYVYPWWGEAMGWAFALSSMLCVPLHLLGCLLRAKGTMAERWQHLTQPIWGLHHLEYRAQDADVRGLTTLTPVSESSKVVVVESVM

## Cl.[2H]C([2H])([2H])N(CC(=O)OCC)C(=N)NC(=O)CCCCCCCCCC [Compound 8]
[1]
  Chemical Stability SIF, no enzyme % T0 at 2 hours at 37 °C.: 17%
Creatine transporter
  levels of d3-Cr in WT rat brains with co-administration of GPA compared to dosing alone: did not change
